Experiment: wn = mass fraction of the nth substance listed
Conditions: 100 kPa, Liquid, Direct current cell with electrodes

C=CC[P+](c1ccccc1)(c1ccccc1)c1ccccc1.[Br-] [allyltriphenylphosphonium bromide] + OCCOCCO
electrical conductivity [S/m]
Conditions	293.15 K	303.15 K	313.15 K	323.15 K	333.15 K	343.15 K
w1 = 0.1842	0.0997	0.115	0.14	0.175	0.224	0.279
w1 = 0.2653	0.118	0.129	0.159	0.198	0.253	0.315
w1 = 0.4745	0.137	0.148	0.177	0.222	0.274	0.339

C=CC[P+](c1ccccc1)(c1ccccc1)c1ccccc1.[Br-] [allyltriphenylphosphonium bromide] + OCCOCCOCCO
electrical conductivity [S/m]
Conditions	293.15 K	303.15 K	313.15 K	323.15 K	333.15 K	343.15 K
w1 = 0.1375	0.037	0.0441	0.0643	0.0881	0.116	0.149
w1 = 0.2033	0.0477	0.0632	0.0905	0.118	0.155	0.208
w1 = 0.3895	0.067	0.0805	0.112	0.147	0.193	0.244
